Values after ≈ are worked out from the molar mass of the structure shown. Counter-ions that a name gives are not always drawn.
Experiments:
[1] = tested on: isolated auricle of guinea pigs; test: measurement in the isolated auricle (functional refractory period and contraction force), modified method of Govier; details: Cavia porcellus, on the average; for EC (125% of initial value): read-out: FRP: concentration at which the functional refractory period is extended to 125% of the initial values; for IC25: read-out: Force: concentration at which the contraction force is reduced to 75% of the initial values
Description: These values were determined by measurements in the isolated auricle of guinea pigs by the method (modified) of Govier, as described by Govier in J. Pharmacol. exp.

mice = test: LD50 toxicity measurement on mice, i.p., eight days after a single application; type: in vivo; details: calculated by method of Litchfield
Description: The LD50, i.p. values (μmole/1) were determined by toxicity measurements on mice, eight days after a single application. The LD50 values were calculated by the method of J. P. Litchfield et al., J. Pharmacol. exp. Ther. 96, 99 (1949).

[2] = hygroscopicity of crystalline salts; type: physicochemical
[3] = solubility in water at 22° C.; type: physicochemical
humans = details: application to humans; cited from earlier work
[4] = stability tests (storage at 55° C.; exposure to light) with thin layer chromatography; type: physicochemical; details: salts
Description: In stability tests, no dissociation was found in thin layer chromatographic investigations. One test included storage for one month at 55° C. and as a second test utilized exposure to light (30 hours, rapid light exposure instrument "SUNTEST," Heraeus Co.).

| Compound | EC (125% of initial value) [1] | IC25 [1] | LD50 i.p. (mice) | hygroscopicity [2] | solubility [3] | toxicity in humans (humans) | stability [4] |
| --- | --- | --- | --- | --- | --- | --- | --- |
| C1CCN2C[C@@H]3C[C@@H](CN4CCCC[C@@H]34)[C@H]2C1 [Sparteine Sulfate, sparteine sulfate] | 33.9 µM | 959 µM | 202 μmole/1 |  |  |  |  |
| CCCCCC1C2CC(CN3CCCCC23)C2CCCCN21 (stereo not shown) [Example 11] |  |  |  | very rapidly dissolved |  |  |  |
| CCCCCC1C2CC(CN3CCCCC23)C2CCCCN21 (stereo not drawn) [hydrochloride of 17-β-n-pentyl sparteine] |  |  |  | extremely hydroscopic |  |  |  |
| CCCCCC1C2CC(CN3CCCCC23)C2CCCCN21 (stereo not drawn) [sulfate of 17-β-n-pentyl sparteine] |  |  |  | extremely hydroscopic |  |  |  |
| CCCCCC1C2CC(CN3CCCCC23)C2CCCCN21 (single isomer, unassigned) [acidiferous 17-β-n-pentyl sparteine-L(+) tartrate] | 9.1 µM | 22.1 µM | 262 μmole/1 |  | > 1000 mg/mL |  |  |
| CCCCCC1C2CC(CN3CCCCC23)C2CCCCN21 (stereo not drawn) [Pentylsparteine diperchlorate, perchlorate of 17-β-n-pentyl sparteine] | 7.7 µM | 19.2 µM | 283 μmole/1 |  | 20 mg/mL (≈ 65.7 mM) | leukopenia, agranulocytosis and aplastic anemia | stable salt |
